Results from US20050239717A1, “Higher fullerenes useful as radical scavengers” (Nano-C, Inc., priority 2003, published 2005).

Test: Radical scavenging efficiency test: cigarette smoke bubbled through coarse glass frit into decalin with scavenger, DHR 6G fluorescent probe
Details: 150 μM to 300 μM, FIG. 6B
Experimental: Tests were conducted to study the effectiveness of higher fullerenes against radicals present in cigarette smoke (predominantly peroxyl radical). The cigarette smoke was bubbled through a cylindrical, coarse glass frit into a solvent (decalin) in which radical scavengers were dissolved. The smoke then exited this solvent and was passed through a second flask, in which a fluorescent probe that fluoresces upon oxidation by radicals was used (Dihydrorhodamine 6G (DHR 6G), purchased from Molecular Probes). The variation of fluorescent signal corresponds directly to the radical content of the cigarette smoke, and thus a measure of the reduction of radicals by the radical scavenger is measured. Signals were measured every 10 seconds.
Tests were conducted to study the sensitivity of the test apparatus in Example 2 to varying concentrations of Vitamin E as a radical scavenger to scavenge radicals present in cigarette smoke (predominantly peroxyl radical). The cigarette smoke was bubbled through a cylindrical, coarse glass frit into a solvent (decalin) in which radical scavengers were dissolved. […] The variation of fluorescent signal corresponds directly to the radical content of the cigarette smoke, and thus a measure of the reduction of radicals by the radical scavenger is measured. Signals were measured every 10 seconds.

Vitamin E
Change of fluorescence signal on doubling the scavenger concentration: very small deflection
